The record followed here is article PMC2926596 (Nucleic Acids Research, 2010).

For the experiment, the target named is T1, ϕ6 P2 (RNA-directed RNA polymerase, RdRP) (Pseudomonas phage phi6, UniProt P11124).
T1 sequence (P11124 1-665): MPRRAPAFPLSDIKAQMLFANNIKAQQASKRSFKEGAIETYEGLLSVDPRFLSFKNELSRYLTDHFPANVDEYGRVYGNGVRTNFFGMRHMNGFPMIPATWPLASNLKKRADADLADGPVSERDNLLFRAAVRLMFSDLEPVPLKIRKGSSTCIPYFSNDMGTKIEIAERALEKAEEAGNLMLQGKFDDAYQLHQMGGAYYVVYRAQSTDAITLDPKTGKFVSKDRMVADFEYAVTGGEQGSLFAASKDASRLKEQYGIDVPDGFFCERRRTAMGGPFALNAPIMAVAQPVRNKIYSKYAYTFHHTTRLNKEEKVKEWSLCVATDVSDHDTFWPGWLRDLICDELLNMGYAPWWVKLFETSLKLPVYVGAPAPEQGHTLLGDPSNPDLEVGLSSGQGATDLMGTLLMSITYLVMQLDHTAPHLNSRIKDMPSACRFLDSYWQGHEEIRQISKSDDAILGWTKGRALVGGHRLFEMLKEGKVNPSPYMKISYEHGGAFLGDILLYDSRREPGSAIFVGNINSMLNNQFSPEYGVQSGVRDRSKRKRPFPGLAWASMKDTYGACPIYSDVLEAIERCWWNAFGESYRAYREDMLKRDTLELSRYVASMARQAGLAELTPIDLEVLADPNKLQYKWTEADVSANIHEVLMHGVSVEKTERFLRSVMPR
The experiment can be described thus: tryptophan fluorescence quenching titration. The class given is binding.

Usually Kd stands for the equilibrium constant for the complex coming apart. A lower Kd goes with tighter binding.

Structures are written as SMILES.

Compound `Nc1nc2c(ncn2[C@@H]2O[C@H](COP(=O)(O)CP(=O)(O)OP(=O)(O)O)[C@@H](O)[C@H]2O)c(=O)[nH]1` [GMPCPP] displayed a Kd of 271 ± 31 µM.

`Nc1nc2c(ncn2[C@@H]2O[C@H](COP(=O)(O)OP(=O)(O)NP(=O)(O)O)[C@@H](O)[C@H]2O)c(=O)[nH]1` [GMPPNP]: the dissociation constant Kd worked out at 317 ± 31 µM.
